# From patent publication US9907760B2 (LIBRAGEN, priority 2010, dated 2018)
# Marks after values point to notes of the source that are not given here.
# What was measured:
# Type in all cases: cell-based
# [1] = tested on: normal human keratinocytes; test: Hyaluronic acid production by normal human keratinocytes (HA-ELISA of supernatant); details: for % stimulation of hyaluronic acid synthesis: vs Control
# Experimental: Normal human keratinocytes were cultured to confluence. Cells were treated with the test products for 48 hours. The supernatants, containing hyaluronic acid, were collected and assayed immediately. Hyaluronic acid was quantified with an ELISA microtiter plate.
# Primocultures of normal human keratinocytes (NHK) were obtained from cells isolated from skin specimens from plastic surgery.
# NHK were seeded at a density of 130,000 cells/well in specific KSFM culture medium (Gibco®, Invitrogen) in a 24-well plate. The plate was placed in a humid incubator (37° C., 5% CO2) for 24 hours.
# The different products at the respective concentrations (diluted in KSFM medium, 600 μl) were contacted with the cells for 48 hours. Untreated cells were used as the control condition.
# Each treatment condition was evaluated on three wells of NHK cells.
# After 24 hours of treatment, an intermediate sample of […] of supernatant was removed from each well and the plate returned to the incubator (37° C., 5% CO2).
# After 48 hours of treatment, the remaining supernatant (≈350 μA) was collected and centrifuged.
# Cell supernatants were assayed according to the method described in the Hyaluronan Enzyme-Linked Immunosorbent Assay kit (HA-ELISA, Echelon Biosciences Inc.). This is an ELISA assay with spectrophotometric detection at 405 nm (Safire, Tecan).
# The assay was performed in duplicate for each well.
# Optical densities (OD) measured on each sample were plotted on a graph (specific standard curve in the kit). The hyaluronic acid concentration was expressed in ng/ml.
# The amount of hyaluronic acid released by the cells was determined for each well and for each treatment condition, relative to the cell content expressed as μg of protein. Thus, the final result was expressed as ng/ml of hyaluronic acid per μg of protein.
# A mean value was calculated for wells treated with the same concentration of test product. This mean was compared with the mean of the control wells (Student t test−comparison of means−significant difference at 95% if p<0.05* and at 99% if p<0.01*).
# The percent stimulation induced by the test products was determined by comparing the mean values of the control and treatment conditions: % Stimulation=(Treated−Control)/Control
# The vitamin A propionate was dissolved in DMSO.
# [2] = tested on: normal human fibroblasts; test: Procollagen 1 production by normal human fibroblasts treated with supernatant of treated keratinocytes (EIA); details: supernatant on fibroblasts 48 hrs; for % stimulation (procollagen 1): vs Control
# Experimental: This experiment was carried out according to the method described in example 3. Fibroblast supernatants, containing procollagen 1, were collected and assayed immediately for procollagen 1 by means of an EIA microtiter plate.
# After 48 hours of treatment, NHF cell supernatants were collected and centrifuged.
# Procollagen 1 was assayed in the cell supernatants by the method described in the Procollagen Type 1 C-peptide EIA kit (MK101, Takara). This is an EIA assay with spectrophotometric detection at 450 nm (Safire, Tecan).
# Duplicate determinations were carried out for two wells whereas the third well was assayed only once.
# Optical densities (OD) measured on each sample were plotted on a graph (specific standard curve in the kit). The procollagen 1 concentration was expressed in ng/ml.
# As in example 3, the protein content was determined in the cell pellets of the supernatants for which procollagen 1 was assayed.
# Thus, the final result was expressed as ng/ml of procollagen 1 per μg of protein. A mean value was calculated for wells treated with the same concentration of test product. This mean was compared with the mean of the control wells (Student t test−comparison of means, significant difference at 95% if p<0.05* and at 99% if p<0.01**).
# The percent stimulation produced by the test products was determined by comparing the mean values of the control and treatment conditions: % Stimulation=(Treated−Control)/Control
# [3] = tested on: normal human fibroblasts; test: Proliferation of normal human fibroblasts treated with supernatant of treated keratinocytes (Cell Proliferation ELISA, BrdU); details: supernatant on fibroblasts 48 hrs
# Experimental: This experiment evaluated the proliferation of normal human fibroblasts (dermal primocultures) after 48 hours of treatment with supernatant transferred from human keratinocytes.
# The “Cell Proliferation ELISA, BrdU” test quantifies cell proliferation by measuring incorporation of bromodeoxyuridine (BrdU) during DNA synthesis followed by luminescence detection.
# Cells were placed in the presence of the treatment for a specified time (incubator at 37° C., 5% CO2). The pyrimidine analogue 5-bromo-2′-deoxyuridine (BrdU) was then added and the cells were further incubated (37° C., 5% CO2) for a minimum of 2 hours, during which time BrdU is incorporated in place of thymidine into the DNA of proliferating cells.
# The culture medium was removed, then the cells were fixed and the DNA denatured at the same time (antibody accessibility). An anti-BrdU-POD (peroxidase) antibody was added; this antibody binds to BrdU in newly synthesized DNA. The immune complex was then detected by addition of luminol substrate with measurement of luminescence (Genios, Tecan).
# Primocultures of normal human fibroblasts (NHF) were obtained from cells isolated from skin specimens from plastic surgery.
# NHF were seeded at a density of 5,000 cells/well in E-199 culture medium (Gibco® Invitrogen) in a 96-well Optilux white plate (BD Falcon 353947). The plate was placed in a humid incubator (37° C., 5% CO2) for 24 hours.
# The two cell types—NHK and NHF—were plated 48 hours apart.
# The different products at the respective concentrations (diluted in KSFM culture medium, 600 μl) were contacted with NHK cells for 48 hours. Control cells were left untreated. Each treatment conditions was evaluated on three wells of NHK cells.
# After 48 hours, a fraction of the NHK cell supernatant was removed. Each sample of supernatant (2 times 100 μl) from a well on the NHK plate (24 wells) was transferred to two wells in the NHF plate already containing 100 μl of E-199 medium per well. […]
# Cell proliferation was quantified by the method described in the “Cell Proliferation ELISA, BrdU” kit (Roche Applied Science No. 11669915001). This is an immunological assay with luminescence detection (Genios, Tecan).
# The means of the luminescence values (RLU/s) of six wells with the same treatment condition were determined. […] Proliferation of treated cells was expressed as a percentage of the control(untreated cells−100%)(OD treated/OD control×100).
# [4] = tested on: human skin explants; test: General morphology of living human skin explants (Masson trichrome)
# Experimental: (§1) In particular, the following parameters were evaluated: • general skin morphology after staining with Masson trichrome, • acid glycosaminoglycan (GAG) content after alcian blue staining, • expression level of the hyaluronic acid CD44 receptor after immunolabeling of this receptor.
# (§2) Thirty-three explants (approximately 10 mm in diameter) were taken from a person (P712AB36) undergoing abdominoplasty. The explants were divided into 11 groups of three explants and placed in special skin explant survival medium.
# (§3) RetinOx+Day cream was applied on the explants at 1 mg/cm^2 on days D0, D2, D3, D6 and D8.
# (§4) On D0, D2, D3, D6 and D8, 30 μA of products P1, P2 and P3 were deposited on filter paper disks placed on the explants.
# (§5) On D0, the three explants in group CO were sampled and cut in two. One-half was fixed in ordinary Bouin's solution and the other half stored at −80° C. On D6 and D10, three explants from each group were sampled and treated in the same manner.
# (§6) After 48 hours of fixing in ordinary Bouin's solution, samples were dried and impregnated in paraffin using a Leica 1020 automated tissue processor, then embedded according to operating procedure MO-H-153 using a Leica EG 1160 embedding station. 5 μm sections were prepared according to operating procedure MO-H-173 using a Leica RM 2125 Minot microtome and mounted on Superfrost® histologic glass microscope slides.
# General morphology was studied on paraffin sections stained with Masson trichrome, Goldner variant, according to operating procedure MO-H-157.
# [5] = tested on: acid GAGs in the papillary dermis; test: Acid glycosaminoglycan (GAG) content of human skin explants (alcian blue staining, image analysis)
# Experimental: as §1, §2, §3, §4, §5, §6
# Acid GAGs were visualized with alcian blue staining. They were present throughout the papillary dermis.
# In this zone, the GAGs under study are stained blue and correspond to acid GAGs.
# The intensity of staining was quantified by image analysis.
# Acid GAGs were quantified by image analysis. The results are expressed as the percentage of the analyzed area in Table 10 below.
# [6] = tested on: hyaluronic acid CD44 receptor; test: Expression of the hyaluronic acid CD44 receptor in human skin explants (immunolabeling)
# Experimental: as §1, §2, §3, §4, §5
# Frozen sections were labeled for the CD44 receptor using mouse anti-CD44 monoclonal antibody (Invitrogen MHC D4400) at 1:100 dilution incubated for 1 hour at room temperature with a biotin/streptavidin amplifier system with FITC. Nuclei were counterstained with propidium iodide.
structure (smiles),measurement,setting,value
"CC(=O)N[C@H]1C(O)O[C@H](COP(=O)(O)O)[C@@H](O)[C@@H]1O (stereo partly shown) [NAG6P, N-acetylglucosamine-6-phosphate]",Hyaluronic acid,"[1]; 5 mM, 48 hrs",1817.9 ± 145.1 ng/mL
same,Hyaluronic acid (ng/ml/μg prot.),"[1]; 5 mM, 48 hrs",122.1 ± 25.6 ng/ml/μg prot.
same,% stimulation of hyaluronic acid synthesis,"[1]; 5 mM, 48 hrs",73%*
same,Hyaluronic acid,"[1]; 10 mM, 24 hrs",1067.3 ± 111.9 ng/mL
same,% stimulation of hyaluronic acid synthesis,"[1]; 10 mM, 24 hrs",35%*
same,% stimulation of hyaluronic acid synthesis,"[1]; 10 mM, 24 hrs, listed as N-acetylglucosamine-6-phosphate",35%
same,Hyaluronic acid,"[1]; 10 mM, 48 hrs",2503.2 ± 552.8 ng/mL
same,Hyaluronic acid (ng/ml/μg prot.),"[1]; 10 mM, 48 hrs",165.7 ± 32.4 ng/ml/μg prot.
same,% stimulation of hyaluronic acid synthesis,"[1]; 10 mM, 48 hrs",135%**
same,% stimulation of hyaluronic acid synthesis,"[1]; 10 mM, 48 hrs, listed as N-acetylglucosamine-6-phosphate",135%
same,Hyaluronic acid,"[1]; 20 mM, 48 hrs",3076 ± 260.8 ng/mL
same,Hyaluronic acid (ng/ml/μg prot.),"[1]; 20 mM, 48 hrs",269.6 ± 55.3 ng/ml/μg prot.
same,% stimulation of hyaluronic acid synthesis,"[1]; 20 mM, 48 hrs",282%**
same,% stimulation of hyaluronic acid synthesis,"[1]; 20 mM, 48 hrs, listed as N-acetylglucosamine-6-phosphate",282%
same,Procollagen 1,[2]; 5 mM on keratinocytes 48 hrs,653.4 ± 36.6 ng/mL
same,Procollagen 1 (ng/ml/μg prot.),[2]; 5 mM on keratinocytes 48 hrs,74.6 ± 5.3 ng/ml/μg prot.
same,% stimulation (procollagen 1),[2]; 5 mM on keratinocytes 48 hrs,2%
same,Procollagen 1,[2]; 10 mM on keratinocytes 48 hrs,677.7 ± 64.6 ng/mL
same,Procollagen 1 (ng/ml/μg prot.),[2]; 10 mM on keratinocytes 48 hrs,72.7 ± 4.4 ng/ml/μg prot.
same,% stimulation (procollagen 1),[2]; 10 mM on keratinocytes 48 hrs,−1%
same,RLU,[3]; 5 mM on keratinocytes 48 hrs,4985 ± 184 RLU
same,RLU,[3]; 10 mM on keratinocytes 48 hrs,4903 ± 377 RLU
same,General morphology,"[4]; D10, NAG6P",considerable modifications of epidermal morphology
same,General morphology,"[4]; D10, NAG6P 0.01% (product P3)",clear reorganization/strengthening of the dermal-epidermal junction
same,General morphology,"[4]; D10, NAG6P, listed as N-acetylglucosamine-6-phosphate",does not cause acanthosis
same,"Acid GAGs, visual analysis","[5]; D6, NAG6P 1% to 0.01%","moderate along the DEJ and present throughout the papillary dermis, in a dose-dependent manner"
same,"Percentage of area occupied by acid GAGs in the papillary dermis, % of analyzed area, Mean","[5]; D10, NAG6P 0.01%",14.0%
same,"Percentage of area occupied by acid GAGs in the papillary dermis, % of analyzed area, Mean","[5]; D10, NAG6P 0.1%",16.3%
same,"Percentage of area occupied by acid GAGs in the papillary dermis, % of analyzed area, Mean","[5]; D10, NAG6P 1%",21.0%
same,"Acid GAGs, visual analysis","[5]; D10, NAG6P 1% to 0.01%","moderately present along the DEJ and throughout the papillary dermis, in a dose-dependent manner"
same,CD44 expression,"[6]; D6, NAG6P 0.01%",overexpression was very moderate
same,CD44 expression,"[6]; D6, NAG6P 0.1%",mildly overexpressed
same,CD44 expression,"[6]; D6, NAG6P 1%",mildly overexpressed
same,CD44 expression,"[6]; D10, NAG6P 0.01%, epidermis and papillary dermis",overexpression was very clear
